Data set [1] has as its system HCT-116. Description: Reduction of insulin-induced HIF-1 alpha expression in human HCT116 cells at 10 uM by western blot analysis. The format is functional. As to conditions: for inhibition at 10 µM: Homo sapiens, HCT-116. (Immunoblotting shows a protein as a band on a membrane.)
The nature of data set [2]: Cytotoxicity against human HCT116 cells at 10 uM. The format is cell-based. As to conditions: hct-116, 10 µM.
The subject of data set [3] is HCT-116. Nature of the data set: Reduction of insulin-induced HIF-1 alpha target gene expression in human HCT116 cells assessed as decrease in VEGF expression at 10 uM by RT-PCR analysis. The format is functional.
The test system of data set [4] is HCT-116. Nature of the data set: Reduction of insulin-induced HIF-1 alpha target gene expression in human HCT116 cells assessed as decrease in Glut-1 expression at 10 uM by RT-PCR analysis. As to conditions: for inhibition at 10 µM: Homo sapiens, HCT-116. The format is functional.
Data set [5] concerns HCT-116. Nature of the data set: Reduction of insulin-induced HIF-1 alpha expression in human HCT116 cells at 30 uM by western blot analysis. The format is functional.
Data set [6] in a line: Cytotoxicity against human HCT116 cells at 30 uM. The format is cell-based. As to conditions: hct-116, 30 µM.
Data set [7] deals with HCT-116. Description: Reduction of insulin-induced HIF-1 alpha expression in human HCT116 cells at 3 uM by western blot analysis. The format is functional, cell-based.
The nature of data set [8]: Cytotoxicity against human HCT116 cells at 3 uM. The format is cell-based. As to conditions: hct-116, 3 µM.
Data set [9] has as its system HCT-116. Nature of the data set: Reduction of insulin-induced HIF-1 alpha target gene expression in human HCT116 cells assessed as decrease in VEGF expression at 30 uM by RT-PCR analysis. The format is functional.
The test system of data set [10] is HCT-116. Description: Reduction of insulin-induced HIF-1 alpha target gene expression in human HCT116 cells assessed as decrease in Glut-1 expression at 30 uM by RT-PCR analysis. The format is functional.

Calls of active or inactive are those of the source. The rule behind the calls is not given here.

The inhibition is the drop in the measured response relative to a control, in per cent.

In the case of `CCCc1c(SC)c2cnccn2c1SC.Cl`, the inhibition at 10 µM with HCT-116 [1] amounted to 90%. For the same compound, the Activity result in data set [2] is listed as “Non-toxic”. For the same compound, the inhibition result in the data set with HCT-116 [3] and in the data set on HCT-116 [4] was “Active” throughout.

With `CSc1c(C)c(SC)n2ccncc12` [listing 1 of 2 here], the results for the inhibition at 10 µM in the data set on HCT-116 [1] and with HCT-116 [4] were 37% and 14%, respectively.

Regarding `CCc1c(SC)c2cnccn2c1SC.Cl`, the inhibition at 10 µM with HCT-116 [1] came out at 86%. In data set [2], the Activity entry is “Non-toxic”.

Take `S=c1ssc(-c2cnccn2)c1CCc1ccccc1`: the inhibition at 30 µM in the data set with HCT-116 [5] was found to be 65%. In addition, in data set [6], the Activity entry is “Non-toxic”.

Turning to `CSc1cc(SC)n2ccncc12.Cl`, the Activity entry in data set [2] was “Non-toxic”.

On to `CSc1c(Cc2ccc(Cl)cc2)c(SC)n2ccncc12.Cl`, for which, in data set [2], the Activity entry is “Toxic”.

As to `OCc1ccc(-c2nn(Cc3ccccc3)c3ccccc23)o1`, in the data set with HCT-116 [7], the inhibition entry was “Active”. Moreover, in [8], the Activity result is reported as “Non-toxic”.

As to `CCc1c(-c2cnccn2)ssc1=S`, in data set [6], the Activity entry is “Non-toxic”.

Take `CSc1c(C)c(SC)n2ccncc12.Cl`: the “inhibition (INH)” value in the data set on HCT-116 [1] amounted to 37%; with HCT-116 [4], 14%. Moreover, the Activity result in data set [2] was “Non-toxic”.

`S=c1ssc(-c2cnccn2)c1-c1ccccc1`: at 30 µM the inhibition with HCT-116 [5] was 8%. Further, the Activity result in data set [6] was “Non-toxic”. Also, the inhibition entry in the data set with HCT-116 [9] and with HCT-116 [10] was “Active” each time.

As to `S=c1ssc(-c2cnccn2)c1Cc1ccc(Cl)cc1`, the Activity entry in data set [6] is given as “Non-toxic”.

With `COc1ccc(Cc2c(-c3cnccn3)ssc2=S)cc1`, in data set [6], the Activity result is “Non-toxic”.

`CCCCc1c(-c2cnccn2)ssc1=S` displayed an inhibition at 30 µM with HCT-116 [5] of 80%. Further, the Activity entry in data set [6] is given as “Non-toxic”.

For `S=c1cc(-c2cnccn2)ss1`, in data set [6], the Activity entry is “Toxic”.

Take `Cc1c(-c2cnccn2)ssc1=S` [OLTIPRAZ]: the inhibition at 30 µM in the data set on HCT-116 [5] is 48%; with HCT-116 [9], 36%; in the data set with HCT-116 [10], 59%. The Activity result in data set [6] is “Non-toxic”.

Turning to `CSc1c(Cc2ccc(C)cc2)c(SC)n2ccncc12.Cl`, in [2], the Activity entry is “Toxic”.

On to `CSc1c(Cc2ccccc2)c(SC)n2ccncc12.Cl`, for which the inhibition at 10 µM in the data set with HCT-116 [1] is 81%; with HCT-116 [3], 77%; in the data set with HCT-116 [4] it was 92%. Further, in data set [2], the Activity entry is recorded as “Non-toxic”.

In the case of `CCCCc1c(SC)c2cnccn2c1SC.Cl`, in [2], the Activity result is “Non-toxic”.

Take `CSc1c(C)c(SC)n2ccncc12` [listing 2 of 2 here]: in the data set with HCT-116 [3], the inhibition result was “inactive”.

For `S=c1ssc(-c2cnccn2)c1Cc1ccccc1`, testing at 30 µM with HCT-116 [5] gave an inhibition of 41%. Besides, the Activity result in data set [6] is on record as “Non-toxic”.

`CSc1c(SC)c2cnccn2c1SC.Cl`: the inhibition at 10 µM in the data set with HCT-116 [1] amounted to 6%. The Activity entry in [2] is “Non-toxic”.

`CC[C@@]1(O)C(=O)OCc2c1cc1n(c2=O)Cc2cc3c(CN(C)C)c(O)ccc3nc2-1` [TOPOTECAN]: the inhibition entry in the data set with HCT-116 [7] was “Active”. Moreover, the Activity result in data set [8] is given as “Non-toxic”.

For the compound `Cc1ccc(Cc2c(-c3cnccn3)ssc2=S)cc1`, the Activity entry in data set [6] is listed as “Non-toxic”.

Regarding `CSc1c(CCc2ccccc2)c(SC)n2ccncc12.Cl`, testing at 10 µM with HCT-116 [1] gave an inhibition of 87%. Besides, the Activity entry in [2] is given as “Toxic”.

As to `COc1ccc(Cc2c(SC)c3cnccn3c2SC)cc1.Cl`, in data set [2], the Activity result was “Toxic”.

Turning to `CCCc1c(-c2cnccn2)ssc1=S`, the inhibition at 30 µM in the data set on HCT-116 [5] is 76%; with HCT-116 [9], 70%; in the data set with HCT-116 [10], 86%. Also, the Activity entry in [6] is on record as “Non-toxic”.

With `CSc1c(-c2ccccc2)c(SC)n2ccncc12.Cl`, in the data set with HCT-116 [1], the inhibition at 10 µM was found to be 3%. For the same compound, in [2], the Activity result is “Non-toxic”. For the same compound, the inhibition result in the data set with HCT-116 [3] and in the data set with HCT-116 [4] was “Active” each time.

Source of the values: ChEMBL document CHEMBL3797139, “Synthesis and biological evaluation of 1,2-dithiol-3-thiones and pyrrolo[1,2-a]pyrazines as novel hypoxia inducible factor-1 (HIF-1) inhibitor” (Bioorg Med Chem, 2016).
